The text below walks through data of patent US4707481A, “Pyridazinones, their preparation and use, and bronchospasmolytic medicaments containing pyridazinones” (BYK Gulden Lomberg Chemische Fabrik GmbH, priority 1983, dated 1987).

The structures appear in SMILES notation.

Assay [1] deals with chain of tracheal rings of guinea pigs. Nature of the assay: relaxing action on chain of tracheal rings in vitro (bronchospasmolytic action). Conditions: for EC50: Cavia porcellus, Column A, negative logarithm of EC50 in mol/l, 50% of maximum relaxation by (-)isoprenaline, read-out: -lg[EC50] trachea (converted); for [EC40 pot.] left atrium / [EC50] trachea: Column C, measure of organ-selective activity; for [EC50] theophylline / [EC50] substance: Column D, trachea. The arrangement: species or system guinea pig.
Procedure: The relaxing action of the 6-aryl-3[2H]pyridazinones I has been tested in vitro on a chain of tracheal rings (Tr.) of guinea pigs. […] The quotient of [EC40pot. ]left atrium and [ED50 ]trachea serves as a measure of the organ-selective activity.
The bronchospasmolytic action of the compounds on the chain of tracheal rings of the guinea pig was tested in vitro:
Four parallel chains of tracheal rings, each consisting of 6 individual rings, of guinea pigs(.male. and .female., 430-600 g) in an organ bath [5 ml, Krebs-Henseleit solution with added phentolamine (10^-5 mol/l), 37° C., initial tension of the organs 2 g, gassing with carbogen] develop a stable, spontaneous tonic contraction after about 20 to 30 minutes. […] Over a period of 20 to 30 minutes, a complete dose/action curve of the test substance is thus obtained. The particular relaxation is expressed as a percentage fraction of the maximum relaxation which can be achieved by administration of (-)isoprenaline (10^-6 mol/1). The concentration of the test substance which causes 50% of the maximum relaxation which can be achieved, expressed by the negative logarithm of the EC50 mol/l: -lg[EC50 ]is a measure of the bronchodilator activity.

The subject of assay [2] is electrically stimulated left atrium of rats. Nature of the assay: positive inotropic action on electrically stimulated left atrium in vitro. The arrangement: species or system rat. Conditions: for EC40: Rattus norvegicus, Column B, negative logarithm of EC40pot in mol/l, 40% increase in contraction force, read-out: -lg[EC40 pot.] left atrium (converted); for [EC40 pot.] theophylline / [EC40 pot.] substance: Column E, left atrium.
Procedure: The positive inotropic action was tested in vitro on the electrically stimulated left atrium of rats (l.a.).
The positive inotropic action of the compounds was tested in vitro on the electrically stimulated left atrium of rats.
Isometric contractions (HSE force sensor K-30; Watanabe recorder, Linear Corder Mark 5) of isolated, left atria from rats (.male., 250-300 g) in an organ bath (10 ml, Tyrode nutrient solution, 31° C., gassing with carbogen, initial tension of the organs 0.25 g) under electrical stimulation (HSE stimulator, 7 V, 3 ms, 2 Hz) were recorded. […] The particular increase in the contraction force is expressed in % of the starting value before administration of the substance. The concentration of the test substance which potentiates the contraction force of the atrium by 40% compared with the starting value [EC40pot. mol/l], expressed by the negative logarithm of the [EC40pot mol/l]: -lg[EC40pot ] serves as a measure of the cardiotonic activity.

Assay [3] concerns acetylcholine-induced bronchospasm. Nature of the assay: protective effect against acetylcholine-induced bronchospasm in conscious guinea pigs. Type of assay: in vivo, guinea pig. Conditions: for Doubling of the latency period / Tripling of the latency period: 100 μmol/kg p.o., 30 min; for Tripling of the latency period: figure in parentheses; for protective effect compared with theophylline: result in words. As for the experimental part: The figure in parentheses indicates the number out of 10 animals in which the latency period more than tripled.
The latency period is to be understood to be the time from the start of acetylcholine-atomization until clear signs of asthma appeared.
The time from the start of atomization to the onset of clear respiratory exertion (in certain circumstances, hypoxic convulsion in the lateral position) is measured, and is denoted the latency period.
The test substance is administered orally by gavage (standard dose 100 μmol/kg, volume 1 ml of 4% strength methocel suspension in 0.9% strength sodium chloride solution/kg). […] Prolongation of the latency period to at least twice its length is regarded as a protective effect.

Assay [4] concerns histamine-induced bronchospasm. The assay can be described thus: inhibition of histamine-induced bronchospasm in anesthetized guinea pigs. Type of assay: in vivo, guinea pig. The note with it: for inhibition of histamine-induced bronchospasm, TVi / inhibition of histamine-induced bronchospasm, Vmaxe / inhibition of histamine-induced bronchospasm, Vmaxi: 20 μmol/kg i.v.; for inhibition of histamine-induced bronchospasm compared with theophylline: result in words. As for the experimental part:
A method for simultaneously recording pharmacodynamic and toxic effects on internal sensitive receptors, on the respiration and the cardiovascular system of guinea pigs was used [U. Kilian, E. Muller, E. Ch. […] To characterize the bronchospasm induced by histamine (0.09-0.18 μmol /kg i.v.), the maximum flow rate of the respiratory air during inspiration (Vmaxi) and expiration (Vmaxe) and the breath volume (BVi) were measured. A histamine spasm before administration of the substance was compared with several histamine spasms after administration of the substance. The test substances were administered intravenously (i.v.) and/or intrajejunally (i.j.). 5 to 10 animals were used per measurement, and the arithmetic mean was calculated from the results.

In the case of `CCCOc1ccc(-c2ccc(=S)[nH]n2)cc1OC` [Serial No. 13, 6-(3-methoxy-4-n-propoxyphenyl)-3[2H]pyridazinethione], in assay [1], the EC50 is 3.09 µM, the “[EC40 pot.] left atrium / [EC50] trachea” value turned out to be 324 and the “[EC50] theophylline / [EC50] substance” value is on record as 43.7. Also, the EC40 in assay [2] is > 1000 µM. Further, in assay [3], the “Doubling of the latency period” value is given as 6 N of 10 animals, the “Tripling of the latency period” value is given as 6 N of 10 animals and the “protective effect compared with theophylline” value is recorded as “greater protective effect”.
For the compound `COc1ccc(-c2ccc(=O)[nH]n2)cc1OCC(C)C` [Serial No. 15, 6-(4-methoxy-3-isobutoxyphenyl)-3[2H]pyridazinone], in assay [1], the EC50 was 0.724 µM, the “[EC40 pot.] left atrium / [EC50] trachea” value was found to be 0.5 and the “[EC50] theophylline / [EC50] substance” value was 186. In assay [2], the “[EC40 pot.] theophylline / [EC40 pot.] substance” value amounted to 1122 and the EC40 was 0.372 µM. Besides, in assay [3], the “Doubling of the latency period” value is listed as 10 N of 10 animals, the “Tripling of the latency period” value is 10 N of 10 animals and the “protective effect compared with theophylline” value is on record as “greater protective effect”. Further, in assay [4] (2 min), the “inhibition of histamine-induced bronchospasm, TVi” value (“inhibition … TVi” below) came out at 99%; the “inhibition of histamine-induced bronchospasm, Vmaxe” value (“inhibition … Vmaxe” below) is 108%; the “inhibition of histamine-induced bronchospasm, Vmaxi” value (from here on “inhibition … Vmaxi”) turned out to be 172%. Further, in assay [4] (10 min), the “inhibition … TVi” value amounted to 107%; the “inhibition … Vmaxe” value turned out to be 123%; the “inhibition … Vmaxi” value came out at 119%. In assay [4] (20 min), the “inhibition … TVi” value is reported as 104%; the “inhibition … Vmaxe” value stood at 103%; the “inhibition … Vmaxi” value was determined as 110%. In assay [4] (30 min), the “inhibition … TVi” value amounted to 63%; the “inhibition … Vmaxe” value turned out to be 84%; the “inhibition … Vmaxi” value is listed as 82%. In assay [4] (60 min), the “inhibition … TVi” value is 33%; the “inhibition … Vmaxe” value amounted to 46%; the “inhibition … Vmaxi” value was determined as 60%. Besides, the “inhibition of histamine-induced bronchospasm compared with theophylline” value in assay [4] is “significantly more effective than theophylline”.
Consider `COc1cc(-c2ccc(=O)[nH]n2)ccc1OCC(C)C` [Serial No. 16, 6-(3-methoxy-4-isobutoxyphenyl)-3[2H]pyridazinone], for which, in assay [1], the concentration giving a half-maximal response (EC50) was 0.288 µM, the “[EC40 pot.] left atrium / [EC50] trachea” value is 5.8 and the “[EC50] theophylline / [EC50] substance” value amounted to 468. In addition, in assay [2], the “[EC40 pot.] theophylline / [EC40 pot.] substance” value is reported as 251 and the EC40 is 1.66 µM. For the same compound, in assay [3], the “Doubling of the latency period” value was 8 N of 10 animals, the “Tripling of the latency period” value was 5 N of 10 animals and the “protective effect compared with theophylline” value is on record as “greater protective effect”. Also, in assay [4] (2 min), the “inhibition … TVi” value worked out at 153%; the “inhibition … Vmaxe” value is 145%; the “inhibition … Vmaxi” value is reported as 154%. For the same compound, in assay [4] (10 min), the “inhibition … TVi” value was found to be 66%; the “inhibition … Vmaxe” value turned out to be 63%; the “inhibition … Vmaxi” value is recorded as 73%. Moreover, in assay [4] (20 min), the “inhibition … TVi” value is listed as 46%; the “inhibition … Vmaxe” value is listed as 60%; the “inhibition … Vmaxi” value is 48%. Besides, in assay [4] (30 min), the “inhibition … TVi” value is given as 28%; the “inhibition … Vmaxe” value is listed as 33%; the “inhibition … Vmaxi” value was determined as 34%. In assay [4] (60 min), the “inhibition … TVi” value was determined as 13%; the “inhibition … Vmaxe” value was 16%; the “inhibition … Vmaxi” value is 15%. Besides, in assay [4], the “inhibition of histamine-induced bronchospasm compared with theophylline” value is recorded as “significantly more effective than theophylline”.

Broadly, the EC50 is the midpoint of the concentration-response curve.
